This is an account of results in publication PMC9525273 (Nature Communications, 2022).

Data set [1] concerns cipargamin-selected culture A (from Dd2-PfATP4^T418N,P990R). Nature of the data set: P. falciparum proliferation assay (72 h, fluorescent DNA-intercalating dye). The format is cell-based. As to conditions: Plasmodium falciparum, culture A at end of drug-exposure period, mean ± SEM, n = 3. As for the experimental part: (§1) For experiments with all other parasites, the effects of compounds of interest on parasite proliferation was measured in 96-well plates containing serial dilutions of the compounds in culture medium, with a fluorescent DNA-intercalating dye used to detect surviving parasites. The assays were initiated with erythrocytes infected with predominantly ring-stage parasites, and the starting parasitaemia and haematocrit were both 1%. […] Fluorescence was measured using a FLUOstar OPTIMA plate reader (BMG LABTECH), with OPTIMA version 2.20R2 and MARS Data Analysis Software version 3.01 R2 (BMG LABTECH).

Data set [2] relates to cipargamin-selected culture B (from Dd2-PfATP4^T418N,P990R). Described as above. The format is cell-based. The settings on record: Plasmodium falciparum, culture B at end of drug-exposure period, mean ± SEM, n = 3. As for the experimental part: as §1
The test system of data set [3] is MMV665949-selected Culture 1 (from Dd2-Polδ; not cloned). Described as above. The format is cell-based, Plasmodium falciparum. As to conditions: Plasmodium falciparum, DD2; MMV665949-selected Culture 1; mean ± SEM, n = 3; read-out: IC50 value. As for the experimental part:
as §1

Data set [4] concerns NF54^G358S-3 parasites. Nature of the data set: P. falciparum proliferation assay (72 h, flow cytometry, SYBR Green I/MitoTracker). The format is cell-based. The settings on record: Plasmodium falciparum, NF54G358S-3, mean ± SEM, n = 3. As to the method:
Two types of parasite proliferation assays were employed in this study, with both yielding highly consistent results. For the NF54-based lines and Dd2-B2-PfATP4^G358S and its parent, assays were initiated with cultures containing predominantly ring-stage parasites with a parasitaemia of 0.3% and a haematocrit of 1%. All assays using NF54 were performed in culture media containing 10% O + human serum. The duration of the assays was 72 h and the concentration of DMSO was <0.5% (v/v). Serial dilutions of the test compounds were performed using a Tecan D300e digital dispenser, with parasite cultures added manually. Parasite survival was assessed by flow cytometry on an Intellicyt iQue3 (Essen Bioscience), with 1× SYBR Green I (Invitrogen) and 200 nM MitoTracker Deep Red FM (Invitrogen) used to stain the nucleus and the mitochondria in live parasites, respectively. The gating strategy used to quantify parasite survival, performed using FlowJo version 10 (FlowJo LLC.), is illustrated in Supplementary Fig. 9. IC50 and IC90 values were calculated by linear interpolation of the dose-response data.

The conditions of data set [5]: clinical trials, sustained periods; cited from earlier work.

Consider `C[C@H]1Cc2c([nH]c3cc(Cl)c(F)cc23)[C@@]2(N1)C(=O)Nc1ccc(Cl)cc12` [Cipargamin], for which the concentration for half-maximal inhibition (IC50) (in general, the concentration that inhibits the measured activity by half) in data set [1] worked out at 5.9 ± 0.2 µM; in data set [2], 6.2 ± 0.2 µM; in data set [3], 0.00142 ± 0.0003 µM; in data set [4] it was 2.2 ± 0.7 µM. The “concentration reached in human plasma” value in data set [5] is on record as “supramicromolar concentrations”.
